Entries after “also recorded” stand apart in the source; their conditions may differ. Like-named read-outs stand apart in the source and are kept apart here.
Experiments:
mGlu8 = mGlu8 (Rattus norvegicus (Rat), UniProt P70579); assay: mGlu8 GIRK thallium flux assay; format: cell-based; conditions: full agonist concentration-response ± 10 μM compound
[1] = In vivo PK in rats, i.p. administration; conditions: 10 mg/kg; for Kp at 30 min: rat, brain and plasma, ip
mGlu6 = mGlu6 (Rattus norvegicus (Rat), UniProt P35349); assay: mGlu6 GIRK thallium flux assay; format: cell-based; conditions: full agonist concentration-response ± 10 μM compound
mGlu2 [2] = target: T1, mGlu2 (Rattus norvegicus (Rat), UniProt P31421); assay: mGlu2 GIRK thallium flux assay;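 further: Cell-based assay, rate of fluorescence rise right after thallium plus agonist addition read on a kinetic imaging plate reader, normalized to vehicle and maximal agonist control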
T1 sequence (P31421 19-872): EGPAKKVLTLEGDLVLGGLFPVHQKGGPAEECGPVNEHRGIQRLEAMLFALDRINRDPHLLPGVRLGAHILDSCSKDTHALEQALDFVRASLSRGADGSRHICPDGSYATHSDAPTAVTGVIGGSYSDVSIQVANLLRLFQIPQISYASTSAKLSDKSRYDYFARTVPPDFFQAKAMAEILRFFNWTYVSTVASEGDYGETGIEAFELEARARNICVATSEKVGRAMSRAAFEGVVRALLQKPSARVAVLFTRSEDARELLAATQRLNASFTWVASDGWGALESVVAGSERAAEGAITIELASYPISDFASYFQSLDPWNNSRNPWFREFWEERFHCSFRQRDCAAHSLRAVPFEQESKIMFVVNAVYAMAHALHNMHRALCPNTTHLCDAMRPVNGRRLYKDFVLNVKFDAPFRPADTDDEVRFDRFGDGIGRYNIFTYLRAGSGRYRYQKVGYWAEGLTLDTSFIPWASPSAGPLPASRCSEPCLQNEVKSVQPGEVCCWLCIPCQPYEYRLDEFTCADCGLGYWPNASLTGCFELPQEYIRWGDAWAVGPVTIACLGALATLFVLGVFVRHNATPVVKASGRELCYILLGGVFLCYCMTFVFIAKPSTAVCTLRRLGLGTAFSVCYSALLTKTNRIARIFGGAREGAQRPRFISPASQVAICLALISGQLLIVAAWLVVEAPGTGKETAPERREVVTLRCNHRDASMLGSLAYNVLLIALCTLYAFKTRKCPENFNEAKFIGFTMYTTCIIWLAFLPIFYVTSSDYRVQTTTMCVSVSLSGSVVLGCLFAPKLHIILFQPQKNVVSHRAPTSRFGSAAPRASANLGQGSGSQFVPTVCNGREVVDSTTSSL

mGlu5 = mGlu5 (Rattus norvegicus (Rat), UniProt P31424); assay: mGlu5 calcium assay; format: cell-based; conditions: full agonist concentration-response ± 10 μM compound
Chain of mGlu5 (P31424 21-1203): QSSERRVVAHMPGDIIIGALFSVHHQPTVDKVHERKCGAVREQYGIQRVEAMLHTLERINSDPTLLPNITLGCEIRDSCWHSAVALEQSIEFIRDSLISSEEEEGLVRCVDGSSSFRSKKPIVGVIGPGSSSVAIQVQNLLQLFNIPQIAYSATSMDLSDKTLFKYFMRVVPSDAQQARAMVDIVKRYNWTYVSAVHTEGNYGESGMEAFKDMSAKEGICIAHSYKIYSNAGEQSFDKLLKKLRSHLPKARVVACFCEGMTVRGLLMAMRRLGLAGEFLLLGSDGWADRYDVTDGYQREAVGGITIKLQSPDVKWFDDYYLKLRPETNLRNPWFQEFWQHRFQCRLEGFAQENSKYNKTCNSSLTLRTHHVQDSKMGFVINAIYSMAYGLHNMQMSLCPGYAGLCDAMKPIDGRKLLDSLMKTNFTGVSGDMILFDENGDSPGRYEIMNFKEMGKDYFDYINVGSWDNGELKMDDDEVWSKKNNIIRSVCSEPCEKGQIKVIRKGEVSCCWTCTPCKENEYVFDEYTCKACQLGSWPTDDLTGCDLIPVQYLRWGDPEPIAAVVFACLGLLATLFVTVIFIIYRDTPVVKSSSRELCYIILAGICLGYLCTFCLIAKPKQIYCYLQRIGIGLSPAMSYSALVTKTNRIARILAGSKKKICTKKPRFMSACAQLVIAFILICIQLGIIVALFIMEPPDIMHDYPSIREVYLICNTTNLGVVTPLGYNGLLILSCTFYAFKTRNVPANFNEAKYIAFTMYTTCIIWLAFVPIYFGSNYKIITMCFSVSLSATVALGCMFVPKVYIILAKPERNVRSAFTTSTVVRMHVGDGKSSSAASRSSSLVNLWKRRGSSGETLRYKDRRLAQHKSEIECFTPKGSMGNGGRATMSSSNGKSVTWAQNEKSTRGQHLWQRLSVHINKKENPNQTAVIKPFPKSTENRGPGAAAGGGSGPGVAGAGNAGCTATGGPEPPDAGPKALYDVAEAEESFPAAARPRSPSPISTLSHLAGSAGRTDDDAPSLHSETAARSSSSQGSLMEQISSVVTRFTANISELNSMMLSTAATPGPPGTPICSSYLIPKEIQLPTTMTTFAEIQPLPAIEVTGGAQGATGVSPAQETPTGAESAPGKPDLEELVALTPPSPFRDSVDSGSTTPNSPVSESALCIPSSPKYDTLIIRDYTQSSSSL

mGlu2 [3] = target: T1, mGlu2; assay: HEK293A mGlu2 Gα15 calcium assay; format: cell-based; conditions: presence of an EC20 of glutamate
mGlu7 = mGlu7 (Rattus norvegicus (Rat), UniProt P35400); assay: mGlu7 GIRK thallium flux assay; format: cell-based; conditions: full L-AP4 concentration-response ± 10 μM compound
Chain of mGlu7 (P35400 35-915): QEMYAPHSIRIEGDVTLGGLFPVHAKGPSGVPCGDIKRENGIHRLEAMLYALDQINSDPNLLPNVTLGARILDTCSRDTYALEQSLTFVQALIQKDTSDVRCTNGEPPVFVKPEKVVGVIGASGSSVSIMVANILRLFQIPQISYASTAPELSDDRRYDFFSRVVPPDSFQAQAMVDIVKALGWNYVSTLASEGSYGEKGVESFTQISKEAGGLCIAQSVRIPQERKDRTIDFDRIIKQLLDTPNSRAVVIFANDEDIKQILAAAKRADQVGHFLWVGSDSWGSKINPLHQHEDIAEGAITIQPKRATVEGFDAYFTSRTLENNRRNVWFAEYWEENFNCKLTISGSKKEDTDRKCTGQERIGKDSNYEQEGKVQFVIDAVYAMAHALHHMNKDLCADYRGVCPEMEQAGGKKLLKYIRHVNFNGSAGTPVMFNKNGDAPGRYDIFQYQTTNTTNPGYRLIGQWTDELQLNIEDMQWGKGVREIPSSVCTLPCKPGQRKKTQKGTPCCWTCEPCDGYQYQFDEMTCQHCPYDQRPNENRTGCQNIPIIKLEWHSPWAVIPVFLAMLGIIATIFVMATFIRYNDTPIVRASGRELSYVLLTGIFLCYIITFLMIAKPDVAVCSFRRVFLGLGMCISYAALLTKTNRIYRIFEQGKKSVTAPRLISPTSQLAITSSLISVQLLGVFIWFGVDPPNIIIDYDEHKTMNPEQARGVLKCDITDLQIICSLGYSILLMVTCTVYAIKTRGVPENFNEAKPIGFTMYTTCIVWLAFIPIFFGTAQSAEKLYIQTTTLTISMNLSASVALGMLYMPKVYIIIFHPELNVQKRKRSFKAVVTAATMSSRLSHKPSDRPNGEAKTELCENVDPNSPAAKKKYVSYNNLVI

mGlu3 [4] = target: T2, mGlu3 (Rattus norvegicus (Rat), UniProt P31422); assay: TREx293 mGlu3 Gα15 calcium assay; format: cell-based; conditions: presence of an EC20 of glutamate, 20 ng/mL Tet for 20 h
T2 sequence (P31422 23-879): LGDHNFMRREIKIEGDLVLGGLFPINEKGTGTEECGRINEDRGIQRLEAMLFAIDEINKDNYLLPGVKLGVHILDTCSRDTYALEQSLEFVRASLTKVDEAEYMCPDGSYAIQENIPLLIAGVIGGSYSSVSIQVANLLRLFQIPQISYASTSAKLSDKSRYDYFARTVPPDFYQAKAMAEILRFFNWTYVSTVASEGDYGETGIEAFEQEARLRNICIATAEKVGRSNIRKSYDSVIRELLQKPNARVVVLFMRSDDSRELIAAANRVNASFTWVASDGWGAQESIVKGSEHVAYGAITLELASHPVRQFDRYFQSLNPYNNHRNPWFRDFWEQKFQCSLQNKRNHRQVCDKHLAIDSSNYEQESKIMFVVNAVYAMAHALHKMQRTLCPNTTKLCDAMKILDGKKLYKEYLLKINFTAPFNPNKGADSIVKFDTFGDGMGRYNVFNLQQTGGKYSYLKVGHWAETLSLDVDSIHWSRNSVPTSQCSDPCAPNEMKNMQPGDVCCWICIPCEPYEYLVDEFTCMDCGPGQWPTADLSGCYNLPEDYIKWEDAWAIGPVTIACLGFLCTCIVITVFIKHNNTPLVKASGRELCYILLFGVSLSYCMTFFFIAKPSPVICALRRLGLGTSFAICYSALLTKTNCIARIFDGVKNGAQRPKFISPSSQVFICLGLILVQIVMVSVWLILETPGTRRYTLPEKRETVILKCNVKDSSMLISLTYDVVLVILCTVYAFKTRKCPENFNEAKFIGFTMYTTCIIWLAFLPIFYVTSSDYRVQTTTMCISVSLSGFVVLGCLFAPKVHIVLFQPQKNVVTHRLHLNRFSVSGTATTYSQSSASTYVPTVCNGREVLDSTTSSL
Description: In order to generate a tetracycline (Tet)-inducible rat mGlu3 stable cell line to be used for a calcium mobilization assay, TREx293 cells (Invitrogen) were transfected with mouse Gα15-pCMV6 plasmid (Origene) using Fugene6 (Promega). The cells were selected for Gα15 expression with 1 mg/mL G418 in the presence of 10 μg/ml blasticidin to maintain Tet Repressor expression. Two weeks after the selection, polyclonal TREx293 Gα15 cells were obtained. The entire coding sequence of rat mGlu3 was amplified by polymerase chain reaction (PCR) and cloned into the Tet-inducible expression plasmid pcDNA5/TO (Invitrogen). Rat mGlu3-pcDNA5/TO was transfected into TREx293 Gα15 cells and selected for mGlu3 expression with 200 μg/ml hygromycin in the presence of G418 and blasticidin.
For mGlu3 the TREx tetracycline-inducible system (Invitrogen) was utilized. […] In the absence of Tet, no measurable expression of mGlu3 is detected either by Western blot (FIG. 3A) or by functional response to calcium mobilization (FIG. 3B). […] Data were analyzed using nonlinear regression. Data were obtained from three separate experiments performed in triplicate, normalized to the response to 100 μM glutamate in each experiment, and are expressed as the mean±SEM.

[5] = In vivo PK in rats, i.v. administration; design: species or system rat; conditions: 2 mg/kg
mGlu4 = mGlu4 (Rattus norvegicus (Rat), UniProt P31423); assay: mGlu4 GIRK thallium flux assay; format: cell-based; conditions: full agonist concentration-response ± 10 μM compound
mGlu1 = mGlu1 (Rattus norvegicus (Rat), UniProt P23385); assay: mGlu1 calcium assay; format: cell-based; conditions: full agonist concentration-response ± 10 μM compound
Chain of mGlu1 (P23385 19-1199): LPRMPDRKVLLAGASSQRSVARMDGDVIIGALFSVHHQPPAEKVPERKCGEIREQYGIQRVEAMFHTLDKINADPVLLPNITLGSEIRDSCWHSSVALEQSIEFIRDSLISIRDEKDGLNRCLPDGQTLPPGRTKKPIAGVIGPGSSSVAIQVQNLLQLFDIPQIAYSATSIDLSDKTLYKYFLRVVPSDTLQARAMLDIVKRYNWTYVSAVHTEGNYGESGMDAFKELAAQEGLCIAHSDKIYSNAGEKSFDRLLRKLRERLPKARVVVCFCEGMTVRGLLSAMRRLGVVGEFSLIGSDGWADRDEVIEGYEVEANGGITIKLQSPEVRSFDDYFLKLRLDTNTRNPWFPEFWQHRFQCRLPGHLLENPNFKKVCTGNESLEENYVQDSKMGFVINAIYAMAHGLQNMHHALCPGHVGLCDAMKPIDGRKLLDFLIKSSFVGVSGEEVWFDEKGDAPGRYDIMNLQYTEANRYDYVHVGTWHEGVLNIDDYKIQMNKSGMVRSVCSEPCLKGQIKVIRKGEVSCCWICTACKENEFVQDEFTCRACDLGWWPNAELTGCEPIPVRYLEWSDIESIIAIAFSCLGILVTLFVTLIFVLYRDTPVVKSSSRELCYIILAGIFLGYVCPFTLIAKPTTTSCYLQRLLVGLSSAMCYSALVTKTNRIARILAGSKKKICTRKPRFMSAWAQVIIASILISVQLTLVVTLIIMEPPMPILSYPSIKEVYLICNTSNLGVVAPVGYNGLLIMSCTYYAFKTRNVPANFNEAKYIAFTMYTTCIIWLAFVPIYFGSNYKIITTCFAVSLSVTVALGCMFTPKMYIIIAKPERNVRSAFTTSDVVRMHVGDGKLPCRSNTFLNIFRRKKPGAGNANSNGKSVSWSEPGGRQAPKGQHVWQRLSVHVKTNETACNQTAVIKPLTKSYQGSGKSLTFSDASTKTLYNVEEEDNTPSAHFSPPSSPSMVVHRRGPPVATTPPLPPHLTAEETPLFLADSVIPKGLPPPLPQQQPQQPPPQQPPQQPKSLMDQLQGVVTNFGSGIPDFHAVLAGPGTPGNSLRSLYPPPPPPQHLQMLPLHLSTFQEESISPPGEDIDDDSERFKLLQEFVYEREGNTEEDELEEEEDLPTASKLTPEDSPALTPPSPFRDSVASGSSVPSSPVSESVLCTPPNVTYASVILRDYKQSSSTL

mGlu3 [6] = target: T2, mGlu3; assay: mGlu3 GIRK thallium flux assay;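 further: kinetic fluorescence slope read shortly after thallium plus agonist addition, scaled between vehicle and maximal agonist control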
[7] = In vivo PK in rats, p.o. administration; design: species or system rat; conditions: 20 mg/kg
[8] = system: cocaine-maintained responding in rats; assay: Cocaine self-administration experiment; format: in vivo, rat
Description: (§1) Subjects. Male Wistar rats (Charles River Laboratories, Raleigh, N.C.) weighing 300-350 g at the beginning of each experiment were housed in pairs in standard rat Plexiglas cages with food and water available ad libitum, except during food training and the food self-administration experiment (see below). Rats were maintained in a climate-controlled room at 21° C. on a 12 h reverse light/dark cycle and all experiments were conducted during the dark (i.e., active) phase (7:00 h-19:00 h) of the cycle under dim red lighting. All procedures were conducted in accordance with the guidelines from the National Institutes of Health and the Association for the Assessment and Accreditation of Laboratory Animal Care and were approved by the Institutional Animal Care and Use Committee.
Drugs. Cocaine hydrochloride (National Institute on Drug Abuse, Bethesda, Md.) was dissolved in sterile physiological saline and filtered through a 0.22 μm syringe filter (Fisher Scientific, Pittsburgh, Pa.) for sterilization purposes.
Food Training. […]
(§2) Statistical Analyses. […] Significant effects were further analyzed with Tukey post hoc tests. […]

[9] = system: food-maintained responding in rats; assay: Food self-administration experiment; format: in vivo, rat; conditions: rats, 0, 10, 20, 40 mg/kg i.p., 60 min pretreatment
Description: as §1
Food Training. Details regarding the experimental procedures have been described previously.^37 All rats were placed under food restriction (20 g food/day) and trained during daily 1 hr sessions to lever press for 45 mg food pellets (Research Diets, New Brunswick, N.J.) under a fixed ratio 1 reinforcement schedule with a 1 s time-out period (FR1 TO1s). Successful responses were followed by illumination of a cue light for the duration of the time-out period, when lever presses had no consequence. […]
as §2

[10] = system: food-maintained responding in rats; conditions: previously shown (Jin, X. et al. 2010); cited from earlier work
[11] = system: cocaine-maintained responding in rats; conditions: previously shown (Jin, X. et al. 2010); cited from earlier work
spinal cord GDNF levels = conditions: 0.5, 1 or 5 mg/kg i.p., wild-type and mGlu2 knockout mice; cited from earlier work
[12] = system: nigrostriatal damage induced by 1-methyl-4-phenyl-1,2,3,6-tetrahydropyridine; conditions: acute or repeated injections 0.25 or 3 mg/kg, i.p., mice; cited from earlier work
SMI-32+ motor neurons = conditions: mixed cultures of spinal cord cells; cited from earlier work
R6/2 mice = conditions: cited from earlier work
[13] = system: 6-OHDA lesioned nigrostriatal tract; conditions: cited from earlier work
reserpine-treated rat = conditions: cited from earlier work
[14] = system: GDNF mRNA and protein levels; conditions: 0.25-3 mg/kg, i.p.; cited from earlier work
[15] = system: cultured spinal cord astrocytes; conditions: wild-type and mGlu2 knockout mice, not mGlu3 knockout; cited from earlier work
SOD1G93A mice = conditions: continuous treatment 1 or 5 mg/kg/day; cited from earlier work
[16] = compound concentration-response in presence and absence of EC20 glutamate
[17] = full agonist concentration-response ± 10 μM compound

COc1cc(C(=O)O)ccc1OCCCCOc1ccc(C(=O)CC(C)C)c(O)c1C [Compound 44, 4-{4-[3-Hydroxy-2-methyl-4-(3-methylbutanoyl)phenoxy]butoxy}-3-methoxybenzoic acid]
General activity at mGlu8 (mGlu8): inactive^b | Kp at 30 min [1]: 0.03 ± 0.01 | Brain, maximum concentration ([1]; rats, i.p., Tmax 30 min): 0.23 ± 0.10 µM | Plasma, maximum concentration ([1]; rats, i.p., Tmax 30 min): 10.57 ± 2.52 µM | General activity at mGlu6 (mGlu6): inactive^b | intrinsic agonist activity towards mGlu2 (Agonist Mode) (mGlu2 [2]; absence of an EC20 concentration of agonist): intrinsic agonist activity | activity toward mGlu2 in GIRK thallium-flux assay (mGlu2 [2]; [16]): Ago-PAM activity | General activity at mGlu2 (mGlu2 [2]; [17]): Ago-PAM | Emin, minimal response of the concentration-response of agonist (mGlu2 [2]; mGlu2, 10 μM compound): Emin = 90% | General activity at mGlu5 (mGlu5): inactive^b | activity in HEK293A mGlu2 Gα15 calcium assay (mGlu2 [3]): behaves as a PAM; also recorded: PAM activity | General activity at mGlu7 (mGlu7): inactive^b | activity in TREx293 mGlu3 Gα15 calcium assay (mGlu3 [4]): demonstrates mGlu3 PAM activity | AUC(0→t) [5]: 304.6 ± 25.8 (μmol/L)*min | Cmax ([5]; rat, iv, plasma): 6.43 ± 0.39 µM | Vd ([5]; rat, plasma, iv, read-out: Vdss): 0.55 ± 0.04 L/kg | General activity at mGlu4 (mGlu4): inactive^b | General activity at mGlu1 (mGlu1): inactive^b | activity toward mGlu3 in GIRK thallium-flux assay (mGlu3 [6]; [16]): PAM activity | General activity at mGlu3 (mGlu3 [6]; [17]): PAM | Emin, minimal response of the concentration-response of agonist (mGlu3 [6]; mGlu3, 10 μM compound): Emin = 4% | AUC(0→t) [7]: 1274.6 ± 246.3 (μmol/L) min | F, oral bioavailability [7]: 41.9% | Plasma ([7]; harvested at or near the Tmax): 16.38 ± 1.1 µM | Kp ([7]; rat, brain and plasma, po, read-out: Brain:Plasma ratio): 0.05 ± 0.01 | Tmax ([7]; rat, plasma, po): 1.5 h | Cmax ([7]; rat, po, plasma): 2.75 ± 0.47 µM

Cc1c(OCCCCOc2ccc(C(=O)CC(C)(C)C)c(O)c2C)cccc1C(=O)O [compound 74, 3-(4-(4-(3,3-Dimethylbutanoyl)-3-hydroxy-2-methylphenoxy)butoxy)-2-methylbenzoic acid]
Kp at 30 min [1]: 0.03 ± 0.01 | cocaine-maintained responding ([8]; rats, 0, 10, 20, 40 mg/kg i.p., 60 min pretreatment): dose-dependently decreased; also recorded: decreasing cocaine-maintained responding | cocaine-maintained responding compared with food-maintained responding ([8]; rats, highest dose tested 40 mg/kg i.p., p<0.05): decreased to a greater extent than food-maintained responding; also recorded: cocaine-maintained responding was significantly lower than food-maintained responding | food-maintained responding [9]: dose-dependently decreased

Cc1c(OCc2cccc(-c3ccc(C(=O)O)cc3)c2)cc2c(c1C)C(=O)C(C1CCCC1)C2 (stereo not shown) [BINA]
activity in TREx293 mGlu3 Gα15 calcium assay (mGlu3 [4]): inactive | food-maintained responding [10]: no effect on food-maintained responding | cocaine-maintained responding [11]: decreased only cocaine-maintained responding

N[C@@]1(C(=O)O)CO[C@H]2[C@H](C(=O)O)[C@H]21 [LY379268]
spinal cord GDNF levels (spinal cord GDNF levels): enhanced spinal cord GDNF levels | protection against MPTP-induced nigrostriatal damage [12]: highly protective against nigrostriatal damage | protection of SMI-32+ motor neurons against excitotoxic death (SMI-32+ motor neurons): protected | striatal neuron loss (R6/2 mice; R6/2 mice, 20 mg/kg s.c. daily, at 10 weeks): rescue of a 15-20% striatal neuron loss | phenotype in R6/2 mice (R6/2 mice; daily s.c. MTD 20 mg/kg beginning at 4 weeks): dramatically improves the phenotype | protection against nigral infusion of 6-OHDA ([13]; 10 mg/kg/day ip for 7 days): provided some protection against nigral infusion of 6-OHDA | protection against striatal infusion of 6-OHDA ([13]; 10 mg/kg/day ip for 21 days): significant protection in the striatum | rotational behaviour 1 month after unilateral 6-OHDA lesioning ([13]; systemic 0.1, 1, 10 mg/kg ip): failed to effect rotational behaviour | locomotor activity in reserpine-treated rat (reserpine-treated rat; intracerebroventricular 1, 5, 10, 20 nmol/2 μl): dose-dependent increase in locomotor activity | reserpine-induced akinesia (reserpine-treated rat; systemic 0.1, 1, 10 mg/kg ip): did not reverse reserpine-induced akinesia | GDNF mRNA and protein levels in the mouse brain [14]: increased | GDNF levels in cultured spinal cord astrocytes [15]: enhanced GDNF levels | neurological disability in SOD1G93A mice (SOD1G93A mice): beneficial effect on neurological disability | food-maintained responding [10]: decrease both cocaine- and food-maintained responding | cocaine-maintained responding [11]: decrease both cocaine- and food-maintained responding

Reference: patent US10099993B2, “Metabotropic glutamate receptor positive allosteric modulators (PAMS) and uses thereof” (Sanford-Burnham Medical Research Institute, priority 2014, dated 2018)
